For orientation: IC50 means the point on the concentration scale where inhibition reaches its midpoint.

Counter-ions that a name gives are not always drawn.

Here are results for 19 compounds from patent US10039753B2, “Imidazo[4,5-c]quinoline and imidazo[4,5-c][1,5]naphthyridine derivatives as LRRK2 inhibitors” (Pfizer Inc., priority 2015, dated 2018).

For one test, the target named is mutant G2019S LRRK2 (Homo sapiens, UniProt Q5S007, G2019S). Put plainly: LRRK2 Assay, Format 2 (Lantha Screen), G2019S mutant. The test is classed as biochemical. Set-up: purchased Invitrogen PV4881. Conditions: geometric mean of 2-4 determinations unless otherwise indicated (a: >=5; b: single determination); read-out: LRRK2, Format 2 G2019S IC50. As to the method:
(§1) LRRK2 kinase activity was measured using Lantha Screen technology from Invitrogen. GST-tagged truncated LRRK2 from Invitrogen (Cat # PV4874) was incubated with a fluorescein-labeled peptide substrate based upon ezrin/radixin/moesin (ERM), also known as LRRKtide (Invitrogen cat # PR8976A), in the presence of a dose response of compound. Upon completion, the assay was stopped and detected with a terbium labeled anti-phospho-ERM antibody (Invitrogen, cat # PR8975A). […] Using Echo acoustic dispensing, 60 nL of compound was transferred to a low volume Corning 384-well assay plate. 3 μL of a working solution of substrate (200 nM LRRKtide, […]) prepared in assay buffer (50 mM HEPES, pH 7.5, 3 mM MgCl2, with 2 mM DTT and 0.01% Brij35 added fresh) was added to the 60 nL compound assay plate. The kinase reaction was started with […] of a working solution of LRRK2 enzyme at a concentration of […]. The final reaction concentrations were 100 nM LRRKtide, […], […] LRRK2 enzyme and a compound dose response with a top dose of 3 mM. The reaction was allowed to progress at room temperature for 30 minutes and then stopped with the addition of […] of detection buffer (20 mM Tris pH 7.6, 0.01% NP-40, 6 mM EDTA with 2 nM terbium labeled anti-phospho-ERM). After an incubation of 1 hour at room temperature, the plate was read on an Envision with an excitation wavelength of 340 nm and a reading emission at both 520 nm and 495 nm. The ratio of the 520 nm and 495 nm emission was used to analyze the data. Inhibition of mutant G2019S LRRK2 (Invitrogen cat # PV4881) was measured in the exact same method. All final concentrations of substrate ATP and enzyme were the same.

Test [1] deals with T1, GST-tagged truncated LRRK2 (Homo sapiens, UniProt Q5S007).
T1 construct: GST-tagged truncated LRRK2 from Invitrogen (Cat # PV4874); GST; purchased Invitrogen PV4874
Put plainly: LRRK2 Assay, Format 2 (Lantha Screen), WT. The test is classed as biochemical. Conditions: geometric mean of 2-4 determinations unless otherwise indicated (a: >=5; b: single determination). On the procedure:
as §1

Sequence of mutant G2019S LRRK2 (Q5S007 970-2527 G2019S limits assumed): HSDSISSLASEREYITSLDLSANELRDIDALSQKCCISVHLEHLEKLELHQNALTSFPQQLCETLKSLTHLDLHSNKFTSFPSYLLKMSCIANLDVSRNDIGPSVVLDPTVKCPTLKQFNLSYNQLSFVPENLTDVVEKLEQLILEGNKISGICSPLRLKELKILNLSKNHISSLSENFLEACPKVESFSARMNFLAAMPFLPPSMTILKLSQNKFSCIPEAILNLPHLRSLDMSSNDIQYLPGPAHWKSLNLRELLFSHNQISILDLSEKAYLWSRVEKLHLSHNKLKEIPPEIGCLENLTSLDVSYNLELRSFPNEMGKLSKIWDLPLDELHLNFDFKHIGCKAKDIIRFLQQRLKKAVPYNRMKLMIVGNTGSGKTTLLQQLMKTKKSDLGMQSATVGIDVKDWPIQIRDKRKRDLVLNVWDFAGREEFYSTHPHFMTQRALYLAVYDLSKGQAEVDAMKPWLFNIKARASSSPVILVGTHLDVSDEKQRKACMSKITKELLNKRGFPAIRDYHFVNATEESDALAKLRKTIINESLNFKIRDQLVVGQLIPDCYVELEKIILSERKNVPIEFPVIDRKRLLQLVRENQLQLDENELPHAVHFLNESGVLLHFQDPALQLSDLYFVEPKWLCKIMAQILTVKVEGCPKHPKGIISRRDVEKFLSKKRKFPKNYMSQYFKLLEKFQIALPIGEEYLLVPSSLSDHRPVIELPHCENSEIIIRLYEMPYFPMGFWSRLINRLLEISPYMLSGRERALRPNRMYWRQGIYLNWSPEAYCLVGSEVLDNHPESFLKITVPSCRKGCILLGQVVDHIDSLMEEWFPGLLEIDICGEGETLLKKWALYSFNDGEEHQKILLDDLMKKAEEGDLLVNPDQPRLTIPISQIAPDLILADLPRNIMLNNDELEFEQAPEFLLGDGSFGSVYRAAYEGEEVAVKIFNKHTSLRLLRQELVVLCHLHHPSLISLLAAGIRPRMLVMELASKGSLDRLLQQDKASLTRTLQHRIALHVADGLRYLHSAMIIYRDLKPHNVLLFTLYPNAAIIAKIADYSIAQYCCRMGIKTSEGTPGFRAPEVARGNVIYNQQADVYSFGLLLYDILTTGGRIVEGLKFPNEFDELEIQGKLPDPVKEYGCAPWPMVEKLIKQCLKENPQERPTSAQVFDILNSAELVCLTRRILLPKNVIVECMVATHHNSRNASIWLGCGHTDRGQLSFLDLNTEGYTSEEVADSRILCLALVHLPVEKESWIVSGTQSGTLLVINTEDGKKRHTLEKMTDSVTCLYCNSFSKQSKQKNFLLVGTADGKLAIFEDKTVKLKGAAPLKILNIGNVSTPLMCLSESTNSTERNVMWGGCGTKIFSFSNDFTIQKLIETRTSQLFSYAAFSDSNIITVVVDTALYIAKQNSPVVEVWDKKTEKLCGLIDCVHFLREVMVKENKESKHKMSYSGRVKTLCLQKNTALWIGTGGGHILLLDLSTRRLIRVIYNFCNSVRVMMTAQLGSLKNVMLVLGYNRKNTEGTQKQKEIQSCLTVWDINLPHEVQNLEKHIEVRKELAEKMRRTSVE
T1 sequence (Q5S007 970-2527 limits assumed): as the sequence (Q5S007 970-2527 G2019S limits assumed) above, with S1050G counted along it

Regarding `Cc1nc(Cc2nc3cnc4ccc(C#N)cc4c3n2[C@@H]2CCO[C@H](C)C2)c(C)o1` [Example 230, 2-[(2,5-dimethyl-1,3-oxazol-4-yl)methyl]-1-[(2R,4R)-2-methyltetrahydro-2H-pyran-4-yl]-1H-imidazo[4,5-c]quinoline-8-carbonitrile, formate salt], the IC50 at mutant G2019S LRRK2 stood at 8.48 nM; in test [1], 11.6 nM.

For `Cc1cc(Cc2nc3cnc4ccc(F)cc4c3n2[C@@H]2CCO[C@H](C)C2)no1` [Example 200, 8-fluoro-2-[(5-methyl-1,2-oxazol-3-yl)methyl]-1-[(2R,4R)-2-methyltetrahydro-2H-pyran-4-yl]-1H-imidazo[4,5-c]quinoline], the IC50 at mutant G2019S LRRK2 was found to be 14.3 nM; in test [1], 12.4 nM.

As for `C[C@@H]1C[C@H](n2c(Cn3ccc(C4CC4)n3)nc3cnc4ccc(Cl)cc4c32)CCO1` [Example 160, 8-chloro-2-[(3-cyclopropyl-1H-pyrazol-1-yl)methyl]-1-[(2R,4R)-2-methyltetrahydro-2H-pyran-4-yl]-1H-imidazo[4,5-c]quinoline, formate salt], the IC50 came to 6.36 nM on mutant G2019S LRRK2 and 6.23 nM in test [1].

As for `Cc1nn2cc(Cc3nc4cnc5ccc(C#N)cc5c4n3[C@@H]3CCO[C@H](C)C3)nc2s1` [Example 157, 2-[(2-methylimidazo[2,1-b][1,3,4]thiadiazol-6-yl)methyl]-1-[(2R,4R)-2-methyltetrahydro-2H-pyran-4-yl]-1H-imidazo[4,5-c]quinoline-8-carbonitrile, formate salt], the half-maximal inhibitory concentration (IC50) on mutant G2019S LRRK2 was 3.79 nM; in test [1], 3.96 nM.

Turning to `Cc1cc(Cc2nc3cnc4ccc(C#N)cc4c3n2[C@H]2CCC[C@H]2F)no1` (racemic) [Example 245, 1-(cis-2-fluorocyclopentyl)-2-[(5-methyl-1,2-oxazol-3-yl)methyl]-1H-imidazo[4,5-c]quinoline-8-carbonitrile, formate salt], the values for the IC50 (at mutant G2019S LRRK2; in test [1]) were 18.6 nM and 14.3 nM, respectively.

Take `Cc1cn(Cc2nc3cnc4ccc(C#N)cc4c3n2C2CCCC2(F)F)nn1` (single isomer, unassigned; ent-1) [Example 196, 1-(2,2-difluorocyclopentyl)-2-[(4-methyl-1H-1,2,3-triazol-1-yl)methyl]-1H-imidazo[4,5-c]quinoline-8-carbonitrile, ENT-1]: the values for the half-inhibitory concentration (IC50) (at mutant G2019S LRRK2; in test [1]) were 15.8 nM and 18.8 nM, respectively.

For the compound `Cc1cc(Cc2nc3cnc4ccc(C#N)cc4c3n2C2CCCC(F)(F)C2)no1` (centres unmarked) [Example 244, 1-(3,3-difluorocyclohexyl)-2-[(5-methyl-1,2-oxazol-3-yl)methyl]-1H-imidazo[4,5-c]quinoline-8-carbonitrile, formate salt], the IC50 on mutant G2019S LRRK2 amounted to 89.7 nM; in test [1], 79.4 nM.

For the compound `C[C@@H]1C[C@H](n2c(C(=O)c3ccon3)nc3cnc4ccc(Cl)cc4c32)CCO1` [Example 174, {8-chloro-1-[(2R,4R)-2-methyltetrahydro-2H-pyran-4-yl]-1H-imidazo[4,5-c]quinolin-2-yl}(1,2-oxazol-3-yl)methanone], the IC50 on mutant G2019S LRRK2 is 19.6 nM; in test [1], 16.8 nM.

As to `C[C@@H]1C[C@H](n2c(C(F)(F)c3ccccn3)nc3cnc4ccc(Cl)cc4c32)CCO1` [Example 214, 8-chloro-2-[difluoro(pyridin-2-yl)methyl]-1-[(2R,4R)-2-methyltetrahydro-2H-pyran-4-yl]-1H-imidazo[4,5-c]quinoline, formate salt], the results for the IC50 (on mutant G2019S LRRK2; in test [1]) were 9.67 nM and 7.67 nM, respectively.

Consider `C[C@@H]1C[C@H](n2c(Cn3cnnn3)nc3cnc4ccc(C#N)cc4c32)CCO1` [Example 124, 1-[(2R,4R)-2-methyltetrahydro-2H-pyran-4-yl]-2-(1H-tetrazol-1-ylmethyl)-1H-imidazo[4,5-c]quinoline-8-carbonitrile, formate salt], for which the IC50 at mutant G2019S LRRK2 was found to be 5.33 nM; in test [1] it was 6.22 nM.

`COc1cnn(Cc2nc3cnc4ccc(F)cc4c3n2[C@@H]2CCO[C@H](C)C2)c1` [Example 179, 8-fluoro-2-[(4-methoxy-1H-pyrazol-1-yl)methyl]-1-[(2R,4R)-2-methyltetrahydro-2H-pyran-4-yl]-1H-imidazo[4,5-c]quinoline]: the IC50 on mutant G2019S LRRK2 is 12.6 nM; in test [1], 14 nM.

Take `CC1(C)CC(n2c(Cc3cc(C(F)(F)F)on3)nc3cnc4ccc(C#N)cc4c32)CCO1` (single isomer, unassigned; ent-2) [Example 177, 1-(2,2-dimethyltetrahydro-2H-pyran-4-yl)-2-{[5-(trifluoromethyl)-1,2-oxazol-3-yl]methyl}-1H-imidazo[4,5-c]quinoline-8-carbonitrile, ENT-2]: the IC50 at mutant G2019S LRRK2 was determined as 914 nM; in test [1], 1220 nM.

Take `C[C@@H]1C[C@H](n2c(Cn3cc(C(F)(F)F)nn3)nc3cnc4ccc(Cl)cc4c32)CCO1` [Example 99, 8-Chloro-1-[(2R,4R)-2-methyltetrahydro-2H-pyran-4-yl]-2-{[4-(trifluoromethyl)-1H-1,2,3-triazol-1-yl]methyl}-1H-imidazo[4,5-c]quinoline, formate salt]: the IC50 on mutant G2019S LRRK2 was 5.42 nM; in test [1], 5.84 nM.

As for `C[C@@H]1C[C@H](n2c(Cc3nnnn3C)nc3cnc4ccc(Cl)cc4c32)CCO1` [Example 128, 8-chloro-1-[(2R,4R)-2-methyltetrahydro-2H-pyran-4-yl]-2-[(1-methyl-1H-tetrazol-5-yl)methyl]-1H-imidazo[4,5-c]quinoline, formate salt], the IC50 on mutant G2019S LRRK2 was determined as 6.95 nM; in test [1], 7.18 nM.

With `CC1(C)CC(n2c(Cn3cnnn3)nc3cnc4ccc(Cl)cc4c32)CCO1` (centres unmarked) [Example 150, 8-chloro-1-(2,2-dimethyltetrahydro-2H-pyran-4-yl)-2-(1H-tetrazol-1-ylmethyl)-1H-imidazo[4,5-c]quinoline, formate salt], the IC50 was 12.1 nM at mutant G2019S LRRK2 and 11.6 nM in test [1].

As to `C[C@@H]1C[C@H](n2c(Cc3cnco3)nc3cnc4ccc(C#N)cc4c32)CCO1` [Example 229, 1-[(2R,4R)-2-methyltetrahydro-2H-pyran-4-yl]-2-(1,3-oxazol-5-ylmethyl)-1H-imidazo[4,5-c]quinoline-8-carbonitrile, formate salt], the IC50 at mutant G2019S LRRK2 was determined as 9.37 nM; in test [1], 9.71 nM.

Regarding `Cc1nnn(Cc2nc3cnc4ccc(Cl)cc4c3n2[C@@H]2CCO[C@H](C)C2)n1` [Example 206, 8-chloro-1-[(2R,4R)-2-methyltetrahydro-2H-pyran-4-yl]-2-[(5-methyl-2H-tetrazol-2-yl)methyl]-1H-imidazo[4,5-c]quinoline], the figures for the IC50 (on mutant G2019S LRRK2; in test [1]) were 9.57 nM and 10.4 nM, respectively.

`Cc1cnn(Cc2nc3cnc4ccc(C#N)cc4c3n2[C@H]2CC[C@@H](F)C2)c1` (single isomer, unassigned) [Example C58, 1-[cis-3-fluorocyclopentyl]-2-[(4-methyl-1H-pyrazol-1-yl)methyl]-1H-imidazo[4,5-c]quinoline-8-carbonitrile]: the IC50 at mutant G2019S LRRK2 amounted to 25.6 nM; in test [1], 21.9 nM.

For `C[C@@H]1C[C@H](n2c(Cn3cccn3)nc3cnc4ccc(C#N)cc4c32)CCO1` [Example 121, 1-[(2R,4R)-2-methyltetrahydro-2H-pyran-4-yl]-2-(1H-pyrazol-1-ylmethyl)-1H-imidazo[4,5-c]quinoline-8-carbonitrile, formate salt], the IC50 is 5.61 nM at mutant G2019S LRRK2 and 6.19 nM in test [1].
